Measured values published in the NIST ThermoML archive (doi:10.1016/j.jct.2017.03.004).
Numbers after ± are expanded uncertainties.

Test: activity coefficient (dimensionless); of the first substance listed, at infinite dilution; xn = mol fraction of the nth substance listed
Conditions: 101.33 kPa, Liquid, Chromatography, x1 = 0

Row | Compound | activity coefficient (298.15 K) | activity coefficient (308.15 K) | activity coefficient (318.15 K) | activity coefficient (328.15 K) | activity coefficient (338.15 K) | activity coefficient (348.15 K) | activity coefficient (358.15 K) | activity coefficient (368.15 K)
1 | C1CCCCCCC1 [cyclooctane] + N#C[N-]C#N.OCCC[n+]1ccccc1 | 231 ± 16 | 215 ± 15 | 201 ± 14 | 188 ± 13 | 178 ± 12 | 168 ± 12 | 159 ± 11 | –
2 | C1CCCC1 [cyclopentane] + N#C[N-]C#N.OCCC[n+]1ccccc1 | 67 ± 4.6 | 63.5 ± 4.3 | 60.4 ± 4.1 | 57.4 ± 3.9 | 54.9 ± 3.8 | 52.7 ± 3.6 | 50.5 ± 3.5 | –
3 | CCCCCCCCCC [decane] + N#C[N-]C#N.OCCC[n+]1ccccc1 | 2100 ± 140 | 1900 ± 130 | 1730 ± 120 | 1580 ± 110 | 1450 ± 100 | 1340 ± 92 | 1240 ± 86 | –
4 | CCOCC [diethyl ether] + N#C[N-]C#N.OCCC[n+]1ccccc1 | – | – | 21.5 ± 1.5 | 21.5 ± 1.5 | 21.5 ± 1.5 | 21.5 ± 1.5 | 21.4 ± 1.5 | 21.4 ± 1.5
5 | CC(C)OC(C)C [diisopropyl ether] + N#C[N-]C#N.OCCC[n+]1ccccc1 | – | – | 105 ± 7 | 102 ± 7 | 99.8 ± 6.8 | 97.5 ± 6.7 | 95.4 ± 6.5 | 93.6 ± 6.4
6 | CCCOCCC [dipropyl ether] + N#C[N-]C#N.OCCC[n+]1ccccc1 | – | – | 92.3 ± 6.3 | 89.2 ± 6.1 | 86.8 ± 5.9 | 84.2 ± 5.8 | 81.9 ± 5.6 | 79.7 ± 5.5
7 | CCO [ethanol] + N#C[N-]C#N.OCCC[n+]1ccccc1 | – | – | 1.3 ± 0.08 | 1.3 ± 0.08 | 1.3 ± 0.08 | 1.31 ± 0.09 | 1.31 ± 0.09 | 1.31 ± 0.09
8 | CCOC(C)=O [ethyl acetate] + N#C[N-]C#N.OCCC[n+]1ccccc1 | – | – | 6.37 ± 0.43 | 6.6 ± 0.45 | 6.81 ± 0.46 | 7.02 ± 0.48 | 7.23 ± 0.49 | 7.43 ± 0.51
9 | CCc1ccccc1 [ethylbenzene] + N#C[N-]C#N.OCCC[n+]1ccccc1 | – | – | 16.1 ± 1.1 | 16.4 ± 1.1 | 16.8 ± 1.1 | 17.1 ± 1.2 | 17.4 ± 1.2 | 17.7 ± 1.2
10 | CCCCCCC [heptane] + N#C[N-]C#N.OCCC[n+]1ccccc1 | 582 ± 40 | 527 ± 36 | 481 ± 33 | 441 ± 30 | 407 ± 28 | 377 ± 26 | 351 ± 24 | –
11 | C=CCCCC [hex-1-ene] + N#C[N-]C#N.OCCC[n+]1ccccc1 | 130 ± 9 | 125 ± 9 | 120 ± 8 | 115 ± 8 | 111 ± 8 | 107 ± 7 | 103 ± 7 | –
12 | CCCCCC [hexane] + N#C[N-]C#N.OCCC[n+]1ccccc1 | 364 ± 25 | 328 ± 23 | 296 ± 20 | 269 ± 18 | – | – | – | –
13 | CC(C)c1ccccc1 [isopropylbenzene] + N#C[N-]C#N.OCCC[n+]1ccccc1 | – | – | 29.5 ± 2 | 29.7 ± 2 | 29.8 ± 2 | 30 ± 2.1 | 30.2 ± 2.1 | 30.4 ± 2.1
14 | CO [methanol] + N#C[N-]C#N.OCCC[n+]1ccccc1 | – | – | 0.682 ± 0.046 | 0.692 ± 0.047 | 0.703 ± 0.047 | 0.713 ± 0.048 | 0.725 ± 0.048 | 0.733 ± 0.049
15 | CCCC(=O)OC [methyl butanoate] + N#C[N-]C#N.OCCC[n+]1ccccc1 | – | – | 10.3 ± 0.7 | 10.6 ± 0.7 | 10.9 ± 0.7 | 11.2 ± 0.8 | 11.5 ± 0.8 | 11.7 ± 0.8
16 | COC(C)=O [methyl ethanoate] + N#C[N-]C#N.OCCC[n+]1ccccc1 | – | – | 3.28 ± 0.22 | 3.43 ± 0.23 | 3.56 ± 0.24 | 3.71 ± 0.25 | 3.84 ± 0.26 | 3.98 ± 0.27
17 | CCC(=O)OC [methyl propanoate] + N#C[N-]C#N.OCCC[n+]1ccccc1 | – | – | 5.77 ± 0.39 | 5.99 ± 0.41 | 6.2 ± 0.42 | 6.42 ± 0.44 | 6.61 ± 0.45 | 6.81 ± 0.46
18 | CC1CCCCC1 [methylcyclohexane] + N#C[N-]C#N.OCCC[n+]1ccccc1 | 210 ± 14 | 195 ± 13 | 182 ± 13 | 170 ± 12 | 160 ± 11 | 150 ± 10 | 143 ± 10 | –
19 | CCCCCCCCC [nonane] + N#C[N-]C#N.OCCC[n+]1ccccc1 | 1450 ± 100 | 1300 ± 90 | 1180 ± 81 | 1080 ± 74 | 985 ± 68 | 906 ± 62 | 837 ± 58 | –
20 | C=CCCCCCC [oct-1-ene] + N#C[N-]C#N.OCCC[n+]1ccccc1 | 391 ± 27 | 367 ± 25 | 346 ± 24 | 326 ± 22 | 310 ± 21 | 295 ± 20 | 282 ± 19 | –
21 | CCCCCCCC [octane] + N#C[N-]C#N.OCCC[n+]1ccccc1 | 930 ± 64 | 846 ± 58 | 772 ± 53 | 710 ± 49 | 654 ± 45 | 605 ± 42 | 564 ± 39 | –
22 | CCCCCO [pentan-1-ol] + N#C[N-]C#N.OCCC[n+]1ccccc1 | – | – | 4.98 ± 0.34 | 4.89 ± 0.33 | 4.81 ± 0.33 | 4.74 ± 0.32 | 4.68 ± 0.32 | 4.61 ± 0.31
23 | CCCC(C)=O [pentan-2-one] + N#C[N-]C#N.OCCC[n+]1ccccc1 | – | – | 5.58 ± 0.38 | 5.77 ± 0.39 | 5.96 ± 0.41 | 6.14 ± 0.42 | 6.33 ± 0.43 | 6.5 ± 0.44
24 | CCC(=O)CC [pentan-3-one] + N#C[N-]C#N.OCCC[n+]1ccccc1 | – | – | 5.68 ± 0.39 | 5.92 ± 0.4 | 6.15 ± 0.42 | 6.36 ± 0.43 | 6.57 ± 0.45 | 6.79 ± 0.46
25 | CCCO [propan-1-ol] + N#C[N-]C#N.OCCC[n+]1ccccc1 | – | – | 2.03 ± 0.14 | 2.03 ± 0.14 | 2.02 ± 0.14 | 2.02 ± 0.14 | 2.01 ± 0.14 | 2.01 ± 0.14
26 | CC(C)O [propan-2-ol] + N#C[N-]C#N.OCCC[n+]1ccccc1 | – | – | 2.24 ± 0.15 | 2.2 ± 0.2 | 2.18 ± 0.15 | 2.15 ± 0.15 | 2.13 ± 0.14 | 2.11 ± 0.14
27 | CCCc1ccccc1 [propylbenzene] + N#C[N-]C#N.OCCC[n+]1ccccc1 | – | – | 30.5 ± 2.1 | 30.8 ± 2.1 | 31.1 ± 2.1 | 31.3 ± 2.1 | 31.6 ± 2.2 | 31.8 ± 2.2
28 | c1ccncc1 [pyridine] + N#C[N-]C#N.OCCC[n+]1ccccc1 | – | – | 1.39 ± 0.09 | 1.48 ± 0.1 | 1.56 ± 0.1 | 1.64 ± 0.11 | 1.72 ± 0.12 | 1.8 ± 0.12
29 | C=Cc1ccccc1 [styrene] + N#C[N-]C#N.OCCC[n+]1ccccc1 | – | – | 6.93 ± 0.47 | 7.23 ± 0.49 | 7.51 ± 0.51 | 7.79 ± 0.53 | 8.06 ± 0.55 | 8.32 ± 0.57
